Entries after “also recorded” stand apart in the source; their conditions may differ.
Tests used:
[1] = target: T1, MMP-13 (Homo sapiens, UniProt P45452); experiment: Assay for inhibitory activities on MMP-13; format: biochemical; settings: catalytic domain, substrate MOCAc-Pro-Leu-Gly-Leu-A2Pr(DNP)-Ala-Arg-NH2; read-out: MMP-13 (IC50μM)
T1 construct: catalytic domain (^104Tyr˜^267Gly) was amplified with RT-PCR; His-tag; enterokinase digestion-site; made in house
Protocol: In regard to MMP-13, mRNA was prepared from carcinoma cell SW1353 derived from human cartilage stimulate by IL-1, TNF and catalytic domain (^[…]) was amplified with RT-PCR. This was cloned in Escherichia. coli expression vector […] inserted with His-tag sequence and enterokinase digestion-site, induced and expressed by IPTG (Isopropyl-β-D-thiogalactopyranoside) and expressed in a insoluble fraction. Isolation of MMP-13 from an insoluble fraction was carried out by dissolving in modifier (6M urea) by a usual method and purification with metal chelate chromatography (Ni […] Sepharose). […] The enzymatic activity on MMP was analyzed by the method described in “C. Graham Knight, Frances Willenbrock and Gillian Murphy: A novel coumarin-labelled peptide for sensitive continuous assays of the matrix metalloproteinases: […] The substrate: MOCAc-[…] was purchased from Peptide Institute, Inc., Osaka, Japan.

[2] = test system: cartilage disks of juvenile rabbits, IL-1 stimulated GAG release; experiment: Cartilage culture test (IL-1 induced GAG release); format: cell-based, rabbit; settings: stated in text for the compound of FIG. 1
Protocol: Cartilage disks (2 mm in diameter) were prepared from the cartilage of juvenile rabbits (3 weeks). Cartilage disks were transferred and cultured individually in the wells of a 48-well tissue culture plate containing DMEM/10% FCS for over 3 days at 37° C. In the night before the test, the medium of DMEM was changed to that not containing FCS. Next morning, IL-1 (4 ng/ml) and a test compound were added to the plate. It is provided that some wells of a plate contain only IL-1 (not containing test compound) and that some wells are vehicle (not containing IL-1 and test compound). After 4 days from the IL-1 addition, the amount of released glycosaminoglycan (GAG) was measured after collecting culture supernatant and cartilage disks.
Quantitation of GAG release was as follows; the weight of the cartilage disk was measured, then 200 μl of a papain digestion buffer solution (1 mM EDTA, 2 mM DTT, 20 mM Tris, (pH 7.0), Papain (300 μg/ml)) was added to each well and the plate containing the digestive solution was incubated for 2 h at 65° C. 50 μl of 100 mM Iodoacetatic acid (pH 7.0) was added for stopping the digestion. The extracts of cartilage are centrifuged at 12000 rpm for 5 min. […] The amount of released GAG in the transferred solution was quantitated by using a proteoglycan & glycosaminoglycan assay kit (Blyscan, Funakoshi Co., Ltd, Tokyo, Japan).

[3] = test system: aggrecanase; experiment: Aggrecanase inhibitory activity test (western blot with anti ARGSV antibody); format: cell-based, rabbit; settings: 4 days culture supernatant containing both IL-1 and test compound
Protocol: To 50 μl of the above 4 days cultured supernatant (not including IL-1 and a test compound, including IL-1 only, including both IL-1 and a test compound) was added a 5 volume solution of 95% EtOH containing 1.3% (w/v) potassium acetate. After the mixed solution was stood at −20° C. for 30 min, the solution was centrifuged to obtain a precipitation. The precipitation was solubilized in 100 μl of 25 mM Tris-hydrochloric acid buffer solution (pH7.6) containing 5 mM calcium chloride*0.15M sodium chloride*0.0025% Brij35. After addition of 5 μl of 250 mM ethylenediaminetetraacetic acid, and 2.5 μl each of 1M sodium acetate (pH6.0) and 1M Tris-hydrochloric acid (pH7.9) to the solution, 2.5 μl of 0.02 units/μl Chondroitinase ABC and 1.0 μl of 0.1 units/μl Keratanase (Both are Seikagaku Kogyo, Japan) were added and the mixture was incubated at 37° C. for 16 h to remove GAG. […]
In the culture supernatant containing only IL-1, the 250 kDa aggrecanase-generated fragment of aggrecan which was recognized by anti N-terminus neoepitope antibody was observed, which was not detected in the supernatant not containing IL-1 and a test compound (XXI). On the other hand, in the culture supernatant containing both IL-1 and a test compound (XXI), the 250 kDa aggrecanase-generated fragment was not detected.

Row | Structure (SMILES) | IC50 [1] [µM] | GAG value [2] | 250 kDa aggrecanase-generated fragment of aggrecan (new N-terminus ARGSV), western blot [3]
1 | O=C(O)[C@H]1[C@@H]2CC[C@@H](C2)[C@@H]1NS(=O)(=O)c1ccc(-c2ccon2)s1 [Compound O-1] | > 10 | – | –
2 | O=C(O)[C@H]1[C@@H]2CC[C@@H](C2)[C@@H]1NS(=O)(=O)c1ccc(-c2ccc(N3CCCC3)cc2)s1 [Compound O-2] | 0.34 | – | –
3 | CCCCc1ccc(-n2nnc(-c3ccc(S(=O)(=O)NC4(C(=O)O)CCCCC4)cc3)n2)cc1 [Compound O-4] | 0.0114 | – | –
4 | CSc1ccc(-c2ccc(S(=O)(=O)N3CCNC(=O)C3C)cc2)cc1 (stereo not shown) [Compound O-7] | 0.883 | – | –
5 | CC1C(=O)NCCN1S(=O)(=O)c1ccc(-c2ccc(N3CCOCC3)cc2)s1 (stereo not shown) [Compound O-8] | 2.99 | – | –
6 | O=C(O)[C@@H]1[C@@H](NS(=O)(=O)c2ccc(-c3ccc(N4CCCC4)cc3)s2)[C@H]2C=C[C@@H]1C2 [Compound O-10] | 0.6 | – | –
7 | CC(C)C(NS(=O)(=O)c1ccc(Oc2ccccc2)cc1)C(=O)NO (stereo not shown) [XXI] | – | 87 | inhibits the production of aggrecanase-generated new N-terminus (ARGSV); also recorded: not detected

More lines, main results first:

Row | IC50 [1] [µM] | Structure (SMILES) | GAG value [2] | 250 kDa aggrecanase-generated fragment of aggrecan (new N-terminus ARGSV), western blot [3]
8 | 0.182 | CCc1ccc(-c2nc(-c3ccc(S(=O)(=O)N[C@H](Cc4ccccc4)C(=O)O)s3)no2)cc1 [Compound N-8] | – | –
9 | 0.353 | CN(C)c1ccc(-c2ccc(S(=O)(=O)N[C@H]3CCC[C@@H]3C(=O)O)s2)cc1 [Compound O-3] | – | –
10 | > 10 | Cc1ccc(-c2ccc(-c3ccc(S(=O)(=O)NCCCC(=O)O)cc3)s2)cc1 [Compound O-5] | – | –
11 | 3.14 | O=C(O)CCCNS(=O)(=O)c1ccc(-c2ccc(N3CCCC3)cc2)s1 [Compound O-6] | – | –
12 | > 10 | Cc1ccc(C#Cc2ccc(S(=O)(=O)Nc3cc(Cl)ccc3C(=O)O)s2)cc1 [Compound O-9] | – | –
